Reference: patent publication US12275731B2, “Azaindole inhibitors of wild-type and mutant forms of LRRK2” (DANA-FARBER CANCER INSTITUTE, INC., priority 2018, dated 2025)

Columns and labels:
Assay in all cases: KinomeScan profiling
Format in all cases: binding
[1] = target: T1, CDKL5 (Homo sapiens, UniProt O76039); conditions: CDKL5, 1 μM; read-out: % control
T1 sequence (O76039 1-960): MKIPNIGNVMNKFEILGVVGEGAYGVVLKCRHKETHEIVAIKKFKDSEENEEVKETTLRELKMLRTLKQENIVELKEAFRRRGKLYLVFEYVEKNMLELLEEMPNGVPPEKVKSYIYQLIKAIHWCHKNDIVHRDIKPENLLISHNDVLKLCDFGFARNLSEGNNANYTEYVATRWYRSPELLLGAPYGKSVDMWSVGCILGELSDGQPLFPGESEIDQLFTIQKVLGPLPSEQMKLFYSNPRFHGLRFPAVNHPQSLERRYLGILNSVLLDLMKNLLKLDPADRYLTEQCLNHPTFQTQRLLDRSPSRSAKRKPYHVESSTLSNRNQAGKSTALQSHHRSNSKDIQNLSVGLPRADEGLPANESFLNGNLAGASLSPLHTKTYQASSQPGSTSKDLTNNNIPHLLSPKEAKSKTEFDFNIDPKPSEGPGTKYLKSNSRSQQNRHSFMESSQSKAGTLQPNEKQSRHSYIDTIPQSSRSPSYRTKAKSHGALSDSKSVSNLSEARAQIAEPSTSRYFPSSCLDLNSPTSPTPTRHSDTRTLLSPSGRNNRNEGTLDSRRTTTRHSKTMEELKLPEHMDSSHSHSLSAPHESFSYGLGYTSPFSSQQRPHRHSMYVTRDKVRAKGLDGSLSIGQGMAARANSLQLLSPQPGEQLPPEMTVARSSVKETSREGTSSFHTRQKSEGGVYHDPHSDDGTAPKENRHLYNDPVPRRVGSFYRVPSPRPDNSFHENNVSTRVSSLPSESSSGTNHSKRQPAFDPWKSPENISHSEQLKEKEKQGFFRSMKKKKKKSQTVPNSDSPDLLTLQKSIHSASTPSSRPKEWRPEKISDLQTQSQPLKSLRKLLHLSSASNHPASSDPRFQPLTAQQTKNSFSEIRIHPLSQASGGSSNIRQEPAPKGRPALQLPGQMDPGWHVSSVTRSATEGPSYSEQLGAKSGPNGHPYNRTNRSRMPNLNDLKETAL
How it was run: (§1)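 Single-point competition binding screen: 1 μM, DMSO, 468 kinases. Results reported as % control from RLU, normalised to DMSO and positive-control wells. Activity threshold: <35% control.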

[2] = target: T2, CTK (Homo sapiens, UniProt P42679); conditions: read-out: % control
T2 sequence (P42679 1-507): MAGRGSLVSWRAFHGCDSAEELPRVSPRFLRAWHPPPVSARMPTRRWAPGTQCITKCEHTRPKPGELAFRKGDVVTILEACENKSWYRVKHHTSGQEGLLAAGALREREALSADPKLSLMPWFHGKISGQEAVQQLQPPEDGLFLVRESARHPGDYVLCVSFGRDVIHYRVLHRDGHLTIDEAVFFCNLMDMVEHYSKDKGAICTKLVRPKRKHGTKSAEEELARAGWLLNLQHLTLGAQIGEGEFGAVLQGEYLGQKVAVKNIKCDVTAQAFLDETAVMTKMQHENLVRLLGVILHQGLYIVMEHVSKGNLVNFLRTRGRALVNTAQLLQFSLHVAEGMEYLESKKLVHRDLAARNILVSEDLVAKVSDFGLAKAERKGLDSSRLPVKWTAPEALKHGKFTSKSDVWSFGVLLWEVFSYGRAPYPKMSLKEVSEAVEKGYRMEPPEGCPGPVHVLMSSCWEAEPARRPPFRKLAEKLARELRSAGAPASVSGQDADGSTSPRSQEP
How it was run: as §1

[3] = target: T3, DDR2 (Homo sapiens, UniProt Q16832); conditions: DDR2, 1 μM; read-out: % control
T3 sequence (Q16832 22-855): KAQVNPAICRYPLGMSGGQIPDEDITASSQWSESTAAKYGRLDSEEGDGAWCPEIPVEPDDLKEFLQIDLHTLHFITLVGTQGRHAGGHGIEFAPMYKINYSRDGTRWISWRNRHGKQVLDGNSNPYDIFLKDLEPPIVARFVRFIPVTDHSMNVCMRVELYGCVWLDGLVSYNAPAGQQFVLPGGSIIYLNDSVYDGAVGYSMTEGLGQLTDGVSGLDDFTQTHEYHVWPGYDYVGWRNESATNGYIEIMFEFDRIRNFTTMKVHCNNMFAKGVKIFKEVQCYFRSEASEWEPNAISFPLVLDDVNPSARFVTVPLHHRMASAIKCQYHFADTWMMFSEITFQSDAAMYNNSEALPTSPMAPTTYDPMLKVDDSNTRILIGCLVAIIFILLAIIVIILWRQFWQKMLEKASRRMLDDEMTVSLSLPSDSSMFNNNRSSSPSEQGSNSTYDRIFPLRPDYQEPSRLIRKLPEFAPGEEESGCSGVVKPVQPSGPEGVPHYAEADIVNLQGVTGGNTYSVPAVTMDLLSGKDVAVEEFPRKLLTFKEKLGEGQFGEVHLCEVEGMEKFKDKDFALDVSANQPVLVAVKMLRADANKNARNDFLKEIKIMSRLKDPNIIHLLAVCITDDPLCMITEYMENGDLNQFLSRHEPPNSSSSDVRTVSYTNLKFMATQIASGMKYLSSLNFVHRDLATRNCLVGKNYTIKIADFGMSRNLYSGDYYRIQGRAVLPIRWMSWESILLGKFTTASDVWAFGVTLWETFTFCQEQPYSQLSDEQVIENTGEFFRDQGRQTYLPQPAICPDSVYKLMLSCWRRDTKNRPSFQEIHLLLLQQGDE
How it was run: as §1

[4] = target: MKNK2 (Homo sapiens, UniProt Q9HBH9); conditions: MKNK2, 1 μM; read-out: % control
How it was run: as §1

[5] = target: T4, PIM3 (Homo sapiens, UniProt Q86V86); conditions: PIM3, 1 μM; read-out: % control
T4 construct: purchased KinomeScan® (panel service)
How it was run: as §1

MKNK2, sequence (Q9HBH9 whole entry): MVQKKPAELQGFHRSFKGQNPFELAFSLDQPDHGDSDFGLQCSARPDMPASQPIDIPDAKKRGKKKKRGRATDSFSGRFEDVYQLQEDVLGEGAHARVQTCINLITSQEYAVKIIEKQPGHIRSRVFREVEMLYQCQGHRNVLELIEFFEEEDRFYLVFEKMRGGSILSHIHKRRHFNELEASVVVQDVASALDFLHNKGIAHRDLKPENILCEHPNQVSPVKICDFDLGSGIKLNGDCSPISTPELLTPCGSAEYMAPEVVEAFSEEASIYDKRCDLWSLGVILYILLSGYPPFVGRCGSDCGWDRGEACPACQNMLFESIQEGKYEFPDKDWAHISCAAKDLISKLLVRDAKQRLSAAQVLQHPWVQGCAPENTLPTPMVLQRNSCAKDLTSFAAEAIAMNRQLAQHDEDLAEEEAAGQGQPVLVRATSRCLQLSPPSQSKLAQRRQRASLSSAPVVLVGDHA

Question: What does the source list for `CNc1c(-c2cnn([C@H]3CCN(C(C)=O)C[C@@H]3F)c2)cnc2[nH]cc(Cl)c12` [Compound 77, 1-((3S,4S)-4-(4-(3-chloro-4-(methylamino)-1H-pyrrolo[2,3-b]pyridin-5-yl)-1H-pyrazol-1-yl)-3-fluoropiperidin-1-yl)ethan-1-one]?
Answer: remaining binding at 1 µM [1]: 94%; remaining binding at 1 µM [2]: 97%; remaining binding at 1 µM [3]: 86%; remaining binding at 1 µM [4]: 56%; remaining binding at 1 µM [5]: 99%

Question: Which results are given for `O=C(c1ccc(-c2cnc3[nH]cc(Cl)c3c2NC2CCCC2)cc1)N1CCC(N2CCOCC2)CC1` [Compound 101, (4-(3-chloro-4-(cyclopentylamino)-1H-pyrrolo[2,3-b]pyridin-5-yl)phenyl)(4-morpholinopiperidin-1-yl)methanone]?
Answer: remaining binding at 1 µM [1]: 70%; remaining binding at 1 µM [2]: 95%; remaining binding at 1 µM [3]: 100%; remaining binding at 1 µM [4]: 94%; remaining binding at 1 µM [5]: 96%

Question: `CNc1c(-c2ccc(C(=O)N3CCC(N4CCOCC4)CC3)cc2)cnc2[nH]cc(Cl)c12` [Compound 96, (4-(3-chloro-4-(methylamino)-1H-pyrrolo[2,3-b]pyridin-5-yl)phenyl)(4-morpholinopiperidin-1-yl)methanone] was tested. Which remaining binding at 1 µM [1] did it give?
Answer: The remaining binding at 1 µM was 92%.

Question: What about the remaining binding at 1 µM [2] of the same compound?
Answer: The remaining binding at 1 µM was 100%.

Question: What about the remaining binding at 1 µM [3] of the same compound?
Answer: The remaining binding at 1 µM was 79%.

Question: And the remaining binding at 1 µM [4]?
Answer: The remaining binding at 1 µM was 22%.

Question: And the remaining binding at 1 µM [5]?
Answer: Its remaining binding at 1 µM is 100%.
